This is an account of results in US6211439A, “Herbicide resistance in plants” (MGI Pharma, Inc, priority 1995, dated 2001).

pIC50: −log10 of the molar value. Converted amounts (≈) assume the structure as drawn. Like-named read-outs stand apart in the source and are kept apart here.

Test [1] relates to unselected maize callus tissue. Description: Callus culture growth inhibition, unselected tissue. Type of test: cell-based. To be noted: Zea mays, 336 h, read-out: level giving a 50% growth inhibition. The protocol: (§1) Therefore the effects of 214 were determined on callus growth. Quantities of tissue averaging 90 mg in size were transferred to nutrient agar maintenance media containing concentrations of 214 ranging from 0.003 to 3 mg per liter. Eight tissue pieces were placed on each plate with three plates per herbicide concentration. After 14 days growth, the tissue was weighed again.

In test [2] the test system is AHAS activity of line XA17 tissue. Description: AHAS activity assay, line XA17 tissue. Type of test: biochemical, maize. To be noted: for pIC50: AHAS activity of line XA17 tissue, read-out: concentration inhibiting AHAS activity 50%. The protocol: (§2) Assays were conducted as a modification of the procedure of Smith et al. (1979, Molec. Gen. Genet. 169: 299-314). Plant cell culture material was ground with sand in a cold mortar and pestle in an equal quantity (w/v) of cell disruption media containing 0.05 M potassium phosphate (pH 7.0), 0.1 mM MgSO4, and 0.5 mM dithiothreitol. The preparation was centrifuged at 11,000×g for 20 minutes and the supernatant assayed for AHAS activity. Assays were conducted in 1 ml volumes containing 0.05 M potassium phosphate (pH 8.0), 40 mM pyruvate, 5 mM MgCl2, 0.1 mM thiamine pyrophosphate, 0.2 ml cell extract, and various concentrations of the herbicide of interest. The reaction mixtures were incubated at 30° C. for 75 minutes and the reaction terminated with the addition of 0.1 ml of 50% (v/v) H2 SO4. Following further incubation at 40° C. for 20 minutes, the acetoin formed from acetolactate by acidification was quantitated using the method of Westerfield (1945, J. Biol. Chem. 161: 495). To 0.2 ml of reaction mixture, 0.8 ml of water, 0.5 ml of 0.5% (w/v) creatine, and 0.5 ml of 5% (w/v) naphthol in 10% (w/v) NaOH was added. After mixing, solutions were incubated at room temperature for one hour. The development of pink color was quantitated by measuring light absorbance at 530 nm.
Assays were conducted to determine if acetohydroxyacid synthase extracted from line XA17 tissue was altered with respect to herbicide sensitivity. Such a change would signify that an alteration of this enzyme conferred the herbicide resistance. Assays were conducted as described supra.

Test [3] deals with QJ22 seedlings. Description: Seedling assay, QJ22 seedlings homozygous for the resistance trait. Type of test: in vivo, maize. To be noted: seedling assays. An excerpt:
Plants were regenerated from cell line QJ22 and seed obtained as described previously for XA17, supra. […] Seeds which are uniformly homozygous for the resistance trait were obtained as described for XA17, supra.

Test [4] relates to XA17 seedlings homozygous for the herbicide resistance trait. The test is described as follows: Seedling assay, XA17 seedlings homozygous for the resistance trait. Type of test: in vivo, maize. To be noted: for resistance of XA17 homozygous seedlings: vs control seedlings. The protocol:
(§3) Twenty control seeds and ten XA17 seeds were surface sterilized with 2.6% sodium hypochlorite for twenty minutes and then washed with sterile distilled water. The seed was imbibed overnight in sterile water containing a small quantity of the fungicide, captan (N-trichloromethylthio-4-cyclohexene-1,2-dicarboximide). The mature embryos were then excised from the seed and plated scutellum side down on solid MS media without 2,4-D. Ten control seeds were plated on media containing no 214 and ten were plated in the presence of 6×10^-8M 214 which had been incorporated into the medium after autoclaving but before gelling. All ten XA17 seeds were plated in the presence of 6×10^-8 M 214. Seedlings were evaluated seven days after plating.
(§4) XA17 seeds homozygous for the resistance trait were obtained as described in Section 6.4.6. […] Assays were conducted as described in Section 6.4.5.

In test [5] the test system is control seedlings. Description: Seedling assay, control (herbicide sensitive) seedlings. Type of test: in vivo, maize. To be noted: Zea mays, read-out: concentration inhibiting shoot growth 50%.
From the text: Seeds to be used as controls in the heritability assay were obtained from regenerated plants from an herbicide sensitive cell line of the same genetic background as line XA17. These regenerated plants were crossed with pollen obtained from a herbicide sensitive inbred B73 plant grown from seed. Seeds were harvested approximately forty days after pollination.
as §3, §4

For test [6], the system named is line XA17 tissue. Description: Callus growth inhibition, resistant line XA17. Type of test: cell-based, maize. To be noted: Zea mays, 336 h, read-out: level giving a 50% growth inhibition. The protocol:
as §1
Initially, the maximum level of 214 in which line XA17 would grow stably was determined. Stock tissue which had been maintained in the presence of 0.1 mg per liter 214 was transferred to media containing 214 levels ranging up to 30 mg per liter. Tissue was maintained for several subculture intervals and the growth rate evaluated.

The subject of test [7] is Callus tissue from line UV18. The test is described as follows: Callus growth inhibition, line UV18. To be noted: line UV18 vs control tissue; based on herbicide amount giving 50% reduction in growth rate. It is filed as cell-based, maize. The protocol:
The UV18 cell line was first observed after 25 weeks of selection comprising 9 subculture intervals. The tissue in the selection procedure had been exposed to 0.1 mg per liter 214 for four subculture intervals followed by exposure to 0.3 mg per liter 214 for four subculture intervals. UV18 was identified during the ninth subculture as a rapidly growing sector of tissue with good morphology.
(§5) Callus tissue from line QJ22 was tested also with the compound 567. The numbers represent the fold increase in herbicide concentration that can be tolerated by each of the cell lines as compared to control tissue. The values were calculated based on the amount of herbicide that gave a 50% reduction in growth rate.

Test [8] concerns Callus tissue from line QJ22. The test is described as follows: Callus growth inhibition, line QJ22. Type of test: cell-based, maize. To be noted: line QJ22 vs control tissue; based on herbicide amount giving 50% reduction in growth rate. The protocol:
as §5

The test system of test [9] is maize cell suspension cultures. Description: Reversal of herbicide growth inhibition by leucine, valine and isoleucine. Type of test: cell-based. To be noted: 1 mM each of leucine, isoleucine, and valine; cell suspension cultures. The protocol: Growth inhibition studies were carried out in 125 ml flasks containing 30 ml of test media. 997 was filter sterilized and added to cooling media following autoclaving. Test media were innoculated with cells to give a settled cell volume (15 minutes without centrifugation) of 0.2 ml per 10 ml of suspension. After either six or seven days growth settled cell volumes were again quantitated.
Cells were tested to determine whether the herbicide induced inhibition of growth was the result of the decreased availability of the three branched chain amino acids. Cells were exposed to toxic levels of 997 (1×10^-6 M) in media either supplemented with 1 mM concentrations of leucine, valine, and isoleucine or with no supplementation. Culture growth rates in the absence of amino acid supplementation and in the presence of 1×10^-6 M 997 were reduced to 16% that of herbicide free cultures.
Experiments were conducted to determine the optimum supplementation levels of each of the three amino acids to obtain maximum herbicide protection and for gaining insight into the site of action of the compound.

The test system of test [10] is acetohydroxyacid synthase (AHAS). The test is described as follows: AHAS activity assay, extract of maize cell cultures / control tissue. Type of test: biochemical. The protocol:
as §2, with “Plant” for “Assays were conducted as a modification of the procedure of Smith et al. (1979, Molec. Gen. Genet. 169: 299-314). Plant”, “Following further incubation at 40° C. for 20 minutes, the acetoin formed from acetolactate by acidification was quantitated using the method of Westerfield (1945, J. Biol. Chem. 161: 495).” left out, “hour.” for “hour. The development of pink color was quantitated by measuring light absorbance at 530 nm.”

For test [11], the system named is Tomato callus lines. To be noted: callus cultures initiated from regenerated plants (Thomas and Pratt, 1983); cited from earlier work.

Take `COc1nc(C)nc(NC(=O)NS(=O)(=O)c2ccccc2Cl)n1` [chlorsulfuron, 2-chloro-N-[(4-methoxy-6-methyl-1,3,5-triazin-2-yl)aminocarbonyl]benzenesulfonamide]: the IC50 was 0.01 µg/mL (≈ 0.028 µM) in test [1] and 10 µg/mL (≈ 28 µM) in test [6]. In addition, the pIC50 is 6.52 in [2]; 7.00 in test [4] (Zea mays, read-out: concentration inhibiting shoot growth 50%); 8.00 in test [5]. Besides, in [3], the “tolerance of QJ22 homozygous seedlings compared to control seedlings” value (“tolerance … compared to control seedlings” for short) is recorded as “no tolerance”. The “resistance of XA17 homozygous seedlings” value in test [4] came to 10 fold.
Consider `CCc1cnc(C2=NC(=O)C(C)(C(C)C)N2)c(C(=O)O)c1` (stereo not drawn) [compound 499, 5-ethyl,2-(5-isopropyl-5-methyl-4-oxo-2-imidazolin-2-yl)nicotinic acid], for which the “Callus Growth Fold Increase in Tolerance” value in [7] is listed as 100 fold; in [8], 30-50 fold. The IC50 in [1] is 0.1 to 0.3 µg/mL (≈ 0.346 to 1.04 µM); in test [6] it was more than 30 µg/mL. Further, the pIC50 in test [2] was 1.52 to 2.52; in test [10] (AHAS activity of control tissue, read-out: concentration inhibiting AHAS activity 50%), 5.00 to 6.00. The “change in herbicide sensitivity of AHAS, line XA17 vs control, on a concentration basis” value in test [2] (maize, ahas, line xa17) is given as not below 1000 fold. In addition, the “tolerance … compared to control seedlings” value in test [3] was 30 fold. The “effect of media supplementation with leucine, isoleucine, valine on growth inhibition” value in test [9] is “reversed the growth inhibitory effects”. Further, in test [10] (AHAS activity from maize cell cultures), the “effect on AHAS enzyme activity” value is “inhibited the enzyme activity”.
Take `Cc1cc(C)n2nc(S(=O)(=O)Nc3c(Cl)cccc3Cl)nc2n1` [compound 567, 5,7-dimethyl-N-(2,6-dichlorophenyl)-1,2,4-triazolo[1,5-a)pyrimidine-2-sulfonamide]: the IC50 in test [1] was 0.1 to 0.3 µg/mL (≈ 0.269 to 0.806 µM); in test [6] (line XA17, two week growth inhibition study), more than 30 µg/mL. In addition, the “tolerance … compared to control seedlings” value in test [3] is “no tolerance”. In addition, in [4] (3×10^-6 M, seedlings homozygous for the resistance trait), the “shoot growth inhibition at the highest concentration tested” value is “no inhibition”. In addition, in [4], the “resistance of XA17 homozygous seedlings” value is on record as “at least 30 fold”. In addition, the pIC50 in test [5] (control seedlings) was 7.00.
Consider `C[n+]1ccc(-c2cc[n+](C)cc2)cc1` [paraquat], for which, in [11], the “increase over wild-type in resistance” value is reported as not below 30 fold.
